Measured values from PMC12198407, “Preclinical and first-in-human of purinostat mesylate, a novel selective HDAC I/IIb inhibitor, in relapsed/refractory multiple myeloma and lymphoma” (Signal Transduction and Targeted Therapy, 2025).
Like-named read-outs stand apart in the source and are kept apart here.

Experiments:
CYP1A2 = target: T1, CYP1A2 (Homo sapiens, UniProt P05177); assay: CYP inhibition, human liver microsomes; assay type: in vitro ADME
T1 construct: human liver microsomal cytochrome P450 isoenzymes; from tissue; host or cells: human liver microsomes

rabbit red blood cells = assay: In vitro hemolytic test; settings: 0.204 mg/mL
Protocol: This experiment included a negative control group (0.9% sodium chloride injection), a positive control group (sterile water for injection), a blank formulation group of injectable Purinostat Mesylate with five dosage levels (0.1, 0.2, 0.3, 0.4, and 0.5 mL/test tube at a concentration of 3.06 mg/mL, which is the same as the concentration of the excipient in the injectable Purinostat Mesylate group), and five dosage levels of injectable Purinostat Mesylate (0.1, 0.2, 0.3, 0.4, and 0.5 mL/test tube at a concentration of 0.204 mg/mL, the maximum intended clinical concentration). A 2% red blood cell suspension was mixed with 0.9% sodium chloride injection, sterile water for injection, the blank formulation of injectable Purinostat Mesylate, and injectable Purinostat Mesylate in the specified proportions, and then placed in a constant temperature incubator at 37±0.5°C. […] Each group was measured in parallel three times.

[1] = Plasma protein binding, equilibrium dialysis; assay type: in vitro ADME; settings: read-out: plasma protein binding rate (converted)
Protocol: The plasma protein binding rate of Purinostat Mesylate was measured using equilibrium dialysis in Sprague-Dawley rats, Beagle dogs, crab-eating monkeys, and human plasma.

solid tumor cells = assay: Proliferation, MTT or Alamar Blue; assay type: cell-based; settings: Homo sapiens
CYP2C9 = target: T2, CYP2C9 (Homo sapiens, UniProt P11712); assay: CYP inhibition, human liver microsomes; assay type: in vitro ADME
T2 construct: human liver microsomal cytochrome P450 isoenzymes; from tissue; host or cells: human liver microsomes

RL = assay: Cell viability CCK8; assay type: cell-based; settings: Homo sapiens, 72 h, no unit in table, read-out: Antiproliferative activity IC50
Protocol: (§1) PM, panobinostat, Pom and DXM were dissolved in DMSO and stored at -20°C freezer. Cells were seeded at a density of 1.0-3.0 × 10^4 cells/well/100 μL in 96-well plates. After overnight incubation, cells were treated with the drug-containing culture medium for 24, 48, or 72 hours, and cell viability was measured using CCK8 (Oriscience, Chengdu, China) at the indicated time points with Biotek Cytation 3 at a wavelength of 450 nm. The IC50 values were calculated using GraphPad Prism 9.4.1, and Calcusyn 2.0 software was employed to calculate the CI values.

RPMI-8226 = assay: Cell viability CCK8; assay type: cell-based; settings: Homo sapiens; RPMI-8226, 72 h; no unit in table; read-out: Antiproliferative activity IC50
Protocol: as §1

ARD = assay: Cell viability CCK8; assay type: cell-based; settings: Homo sapiens, 72 h, no unit in table, read-out: Antiproliferative activity IC50
Protocol: as §1

[2] = tested on: class I HDAC substrates histone H3 and H4 in SUDHL-6, Daudi, Raji, Ramos, RPMI-8226; assay: Cellular acetylation of histone H3 and H4; assay type: cell-based, human
Description: The results of these cell experiments were consistent with the in vitro enzyme activity assay results.

[3] = Body weight of MM1S xenograft, DEL and r/r DLBCL PDX mice; assay type: in vivo; settings: treatment groups of the mouse models
Protocol: Mice received subcutaneous inoculation with 0.5 × 10^7 MM1S or RPMI-8226 cells, to establish xenograft models. […] When tumors reached 150–250 mm^3, mice were treated with various compounds. PM and panobinostat were administered intravenously three times a week at 5 mg/kg in combination therapy. […] Tumor volume (tumor volume (mm^3) = π/6 × length × width^2) and body weights were measured every two days.
Mice were weighed every two days. All data are represented as mean ± SEM.

[4] = Intravenous vascular irritation test; assay type: in vivo, rabbits; settings: 0.204 mg/mL, 10 mL/kg, 5 days
Protocol: This experiment included a blank formulation group of injectable Purinostat Mesylate and an injectable Purinostat Mesylate group, with 8 Japanese White Rabbits in each group, evenly divided by sex. The injectable Purinostat Mesylate group received an intravenous infusion of 0.204 mg/mL (the maximum intended clinical concentration) at a volume of 10 mL/kg via the right ear marginal vein. The blank formulation group received an intravenous infusion of hydroxypropyl beta-cyclodextrin at the same dose as the injectable Purinostat Mesylate group. Each rabbit in both groups also received an equal volume of 0.9% sodium chloride injection via the left ear marginal vein as a self-control. The administration was performed once daily for a total of 5 consecutive days, with the first day of administration defined as Day 1 of the experiment. During the study, the general condition of the rabbits and the injection site were monitored daily. Approximately 72 hours and 16 days after administration, 4 rabbits from each group were euthanized for gross anatomical observation of the injection site, and blood vessels and surrounding tissues from the injection site were collected for histopathological examination.

[5] = Acute toxicity test, intravenous; assay type: in vivo, Beagle dogs
Protocol: In this study, the designed doses were 10 and 50 mg/kg administered intravenously. […] The maximum tolerated dose (MTD) was determined to be 10 mg/kg.

[6] = Safety pharmacology, ECG and blood pressure; assay type: in vivo, Beagle dogs; settings: 3.6 mg/kg i.v.
Protocol: In the 1.2 and 3.6 mg/kg groups, transient increases in heart rate were observed, and in the 3.6 mg/kg group, a transient and reversible prolongation of QT interval (9.6%) was also noted. Additionally, there were no significant effects observed on other qualitative and quantitative ECG parameters or blood pressure in the dogs. […] In the 90 mg/kg group, reduced locomotor activity and decreased standing frequency were also observed, but these effects returned to baseline after 24 hours. No significant effects were noted on other neurological behaviors in rats, and no impacts on the respiratory system were observed.

[7] = tested on: diffuse large B-cell lymphoma (DLBCL) cells from patient C; assay: Cell apoptosis analysis, primary cells; assay type: cell-based, human; settings: 5 nM, 48 h
Protocol: (§2) CD138^+, CD38^+, or CD20^+ primary cells were obtained from plasma cell leukemia patients and DLBCL patients who had relapsed after multiple drug therapies. These patient samples were sourced from West China Hospital and had been approved by the clinical ethics committee of West China Hospital of Sichuan University (Chengdu, China). The clinical information of these patients was summarized in Supplementary Table 2. The patient primary cells were cultured in 6-well plates at a density of 1×10^6 cells/mL, and treated with control, PM, panobinostat, Pom and DXM at indicated concentrations for 48 hours. CD138, CD38, and CD20 monoclonal antibodies, Annexin V-APC and 7AAD apoptosis detection kits were used following the manufacturer’s instructions. The apoptosis cells were analyzed by flow cytometry (Thermo, AttuneTMNxT).

[8] = tested on: primary MM cells from relapsed patients A and B; assay: Cell apoptosis analysis, primary cells; assay type: cell-based, human; settings: 5 nM, 48 h
Protocol: as §2

T1 sequence (P05177 whole entry): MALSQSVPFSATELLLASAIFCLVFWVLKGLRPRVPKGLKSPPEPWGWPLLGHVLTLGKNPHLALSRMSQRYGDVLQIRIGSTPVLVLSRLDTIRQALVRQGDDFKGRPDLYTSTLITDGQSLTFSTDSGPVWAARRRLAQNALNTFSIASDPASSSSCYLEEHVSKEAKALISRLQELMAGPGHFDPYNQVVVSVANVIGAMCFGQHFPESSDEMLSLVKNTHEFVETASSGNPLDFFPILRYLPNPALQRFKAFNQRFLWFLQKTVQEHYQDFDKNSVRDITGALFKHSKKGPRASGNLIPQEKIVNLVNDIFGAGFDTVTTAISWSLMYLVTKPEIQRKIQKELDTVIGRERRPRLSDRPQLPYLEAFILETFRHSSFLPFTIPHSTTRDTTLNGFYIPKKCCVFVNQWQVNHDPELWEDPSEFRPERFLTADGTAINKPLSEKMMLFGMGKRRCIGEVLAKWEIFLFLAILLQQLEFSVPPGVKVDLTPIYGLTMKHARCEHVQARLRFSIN
T2 sequence (P11712 whole entry): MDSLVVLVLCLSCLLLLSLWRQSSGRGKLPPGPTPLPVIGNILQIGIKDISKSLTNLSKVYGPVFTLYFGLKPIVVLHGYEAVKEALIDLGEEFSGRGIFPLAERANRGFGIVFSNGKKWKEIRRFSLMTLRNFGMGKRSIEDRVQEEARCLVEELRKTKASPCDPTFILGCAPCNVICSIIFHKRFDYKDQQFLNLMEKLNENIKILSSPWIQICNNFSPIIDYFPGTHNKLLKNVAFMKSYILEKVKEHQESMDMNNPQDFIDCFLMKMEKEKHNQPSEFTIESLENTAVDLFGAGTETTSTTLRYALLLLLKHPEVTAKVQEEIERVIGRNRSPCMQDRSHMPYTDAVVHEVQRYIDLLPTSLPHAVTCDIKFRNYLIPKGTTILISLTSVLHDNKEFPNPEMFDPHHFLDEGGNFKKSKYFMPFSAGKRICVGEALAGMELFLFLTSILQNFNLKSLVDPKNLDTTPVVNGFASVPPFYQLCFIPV
Protocol for T315I Bcr-Abl B-ALL: Subcutaneous or orthotopic tumor models were established using NOD/SCID mice for human-derived lymphoma, multiple myeloma cell lines, and samples from clinical B-ALL patients. The Ighmyc transgenic mice and primary B-ALL models were induced using C57 mouse strains. The experimental doses of Purinostat Mesylate include 1.25, 2.5, 5, 10, and 20 mg/kg, administered via tail vein (i.v.) three times a week. In each model experiment, the positive control drugs included the HyperCVAD regimen (cyclophosphamide, doxorubicin, vincristine, dexamethasone, methotrexate, and cytarabine) simulating clinical treatment for double-hit lymphoma, the CODOX regimen (cyclophosphamide, doxorubicin, vincristine, methotrexate, and cytarabine) simulating clinical treatment for Burkitt lymphoma, as well as lenalidomide (L), bortezomib (B), dexamethasone (D), and LBH589 lactate, which is marketed for relapsed or refractory multiple myeloma. In the subcutaneous tumor model experiments using human-derived tumor cell lines, the inhibitory effect of Purinostat Mesylate on tumors was assessed by measuring tumor volume (TV), tumor weight, relative tumor volume (RTV), and relative tumor growth rate (T/C). Additionally, in some model experiments, satellite groups were designed, where animals in these groups were not sacrificed at the same treatment endpoint and received extended treatment. […]

Compound: CN(Cc1nc2c(N3CCOCC3)nc(-c3ccc(N)cc3)nc2n1C)c1ncc(C(=O)NO)cn1.CS(=O)(=O)O [PM, 2-(((2-(4-Aminophenyl)-9-methyl-6-(4-morpholinyl)-9H-purine-8-yl)methyl)methylamino)-N-hydroxy-5-pyrimidine-carboxamide Mesylate]
- IC50 (CYP1A2): > 10000 nM
- in vitro hemolytic test outcome (rabbit red blood cells): negative
- fraction unbound at 0.2 µM ([1]; Beagle, dog): 0.169
- fraction unbound at 2 µM ([1]; Beagle, dog): 0.164
- fraction unbound at 10 µM ([1]; Beagle, dog): 0.167
- fraction unbound at 0.2 µM ([1]; Sprague-Dawley, rat): 0.057
- fraction unbound at 2 µM ([1]; Sprague-Dawley, rat): 0.045
- fraction unbound at 10 µM ([1]; Sprague-Dawley, rat): 0.045
- fraction unbound at 0.2 µM ([1]; human): 0.097
- fraction unbound at 2 µM ([1]; human): 0.1
- fraction unbound at 10 µM ([1]; human): 0.096
- fraction unbound at 0.2 µM ([1]; monkey): 0.216
- fraction unbound at 2 µM ([1]; monkey): 0.205
- fraction unbound at 10 µM ([1]; monkey): 0.21
- median survival time (T315I Bcr-Abl B-ALL; 5 mg/kg, solvent control 44 days): greater than 80 days
- median survival time (T315I Bcr-Abl B-ALL; 10 mg/kg): greater than 80 days
- IC50 (solid tumor cells; all lines): < 100 nM
- IC50 (solid tumor cells; most tumor cell lines): < 50 nM
- IC50 (CYP2C9): > 10000 nM
- IC50 (RL): 1.27 ± 0.14 nM
- IC50 (RPMI-8226): 2.42 ± 0.4 nM
- IC50 (ARD): 0.42 ± 0.04 nM
- concentration inducing increased acetylation of histone H3 and H4 [2]: 0.3 to 1 nM
- body weight / side effects [3]: no weight loss or other evident side effects
- irritation at the injection site [4]: did not cause irritation at the injection site
- mortality ([5]; 50 mg/kg): all animals dying between days 2 and 4
- MTD ([5]; beagle, dog, in vivo, iv, single i.v., read-out: maximum tolerated dose (MTD)): 10 mg/kg
- prolongation of QT interval, transient and reversible [6]: 9.6%
- apoptosis [7]: 82.1%
- apoptosis ([8]; patient A): 92.9%
- apoptosis ([8]; patient B): 82.0%
